IC50 data for 20 compounds are collected here from patent publication US9604989B2, “Imidazopyridazines as Akt kinase inhibitors” (Bayer Intellectual Property GmbH, priority 2011, dated 2017).

SMILES strings stand for the structures. A value given as a limit tells only on which side of the number the result lay.

One experiment has as its system phospho-AKT at S473. The experiment can be described thus: Cellular p-AKT1/2/3-S473 assay in KPL-4 cells. The class given is cell-based. As to conditions: Homo sapiens, KPL4; KPL-4 breast tumour cell line, compound treatment 2 hours; read-out: pAKT-S473 median IC50.
Experiment [1] addresses His-tagged human recombinant kinase full-length Akt2 (Homo sapiens (Human), UniProt P31751). The experiment is described as follows: Akt2 kinase assay (Akt2 TR-FRET assay). The class given is biochemical. As to conditions: 10 μM ATP, 60 min at 22° C., read-out: Akt2 median IC50. On the technique in general: In TR-FRET formats the signal depends on donor and acceptor labels being close together.
From the text: Akt2 inhibitory activity of compounds of the present invention was quantified employing the Akt2 TR-FRET assay as described in the following paragraphs.
His-tagged human recombinant kinase full-length Akt2 expressed in insect cells and activated by PDK1 was purchased form Invitrogen (part number PV 3975). As substrate for the kinase reaction the biotinylated peptide biotin-Ahx-[sequence] (C-terminus in amide form) was used which can be purchased e.g. from the company Biosynthan GmbH (Berlin-Buch, Germany). For the assay 50 nl of a 100 fold concentrated solution of the test compound in DMSO was pipetted into a black low volume 384 well microtiter plate (Greiner Bio-One, Frickenhausen, Germany), 2 μl of a solution of Akt2 in assay buffer [50 mM TRIS/HCl pH 7.5, 5 mM MgCl2, 1 mM dithiothreitol, 0.02% (v/v) Triton X-100 (Sigma)] were added and the mixture was incubated for 15 min at 22° C. to allow pre-binding of the test compounds to the enzyme before the start of the kinase reaction. Then the kinase reaction was started by the addition of 3 μl of a solution of adenosine-tri-phosphate (ATP, 16.7 μM=>final conc. in the 5 μl assay volume is 10 μM) and substrate (1.67 μM=>final conc. in the 5 μl assay volume is 1 μM) in assay buffer and the resulting mixture was incubated for a reaction time of 60 min at 22° C. The concentration of Akt2 in the assay was adjusted depending of the activity of the enzyme lot and was chosen appropriate to have the assay in the linear range, typical enzyme concentrations were in the range of about 0.2 ng/μl (final conc. in the 5 μl assay volume). The reaction was stopped by the addition of 5 μl of a solution of HTRF detection reagents (200 nM streptavidine-XL665 [Cisbio] and 1.5 nM anti-phosho-Serine antibody [Millipore, cat. #35-001] and 0.75 nM LANCE Eu-W 1024 labeled anti-mouse IgG antibody [Perkin Elmer]) in an aqueous EDTA-solution (100 mM EDTA, 0.1% (w/v) bovine serum albumin in 50 mM HEPES/NaOH pH 7.5). The resulting mixture was incubated 1 h at 22° C. to allow the binding of the biotinylated phosphorylated peptide to the streptavidine-XL665 and the antibodies. Subsequently the amount of phosphorylated substrate was evaluated by measurement of the resonance energy transfer from the anti-mouse-IgG-Eu-Chelate to the streptavidine-XL665. Therefore, the fluorescence emissions at 620 nm and 665 nm after excitation at 350 nm was measured in a TR-FRET reader, e.g. a Rubystar (BMG Labtechnologies, Offenburg, Germany) or a Viewlux (Perkin-Elmer). The ratio of the emissions at 665 nm and at 622 nm was taken as the measure for the amount of phosphorylated substrate.

Experiment [2] deals with KPL-4 breast cancer cell line. The experiment is described as follows: Tumor cell proliferation assay (CellTiter-Glo), KPL-4. To be noted: Homo sapiens, KPL4, 72 h drug exposure, read-out: KLP-4 median IC50. The class given is cell-based. For orientation: ATP-based viability assays read luminescence as a measure of living cells.
Method: Biological Assay 4.0: Tumor Cell Proliferation Assays
Compounds were tested in a cell-based assay that measures the capacity of the compounds to inhibit tumour cell proliferation following a 72 h drug exposure. Cell viability is determined using CellTiter-Glow® (CTG, Promega, cat#G7571/2/3). The CellTiter-Glo® Luminescent Cell Viability Assay is a homogeneous method to determine the number of viable cells in culture.
Detection is based on using the luciferase reaction to measure the amount of ATP from viable cells. The amount of ATP in cells correlates with cell viability. Within minutes after a loss of membrane integrity, cells lose the ability to synthesize ATP, and endogenous ATPases destroy any remaining ATP; thus the levels of ATP fall precipitously.
For each cell line assayed, cells were plated onto a separate plate for determination of fluorescence at t=0 hour and t=72 hour time points. Following overnight incubation at 37° C., chemiluminescence values for the t=0 samples were determined after adding 10 μl medium and 100 μl CTG solution according to manufacture protocol. Plates for the t=72 hour time points were treated with compounds diluted into growth medium at ten times final concentration added in 10 μL to the cell culture plate. Cells were then incubated for 72 hours at 37° C. Chemiluminescence values for the t=72 hour samples were determined. […] Experiments were controlled using a reference compound as standard.
Experiment [3] deals with His-tagged human recombinant kinase full-length Akt1 (Homo sapiens (Human), UniProt P31749). The experiment can be described thus: Akt1 kinase assay (Akt1 TR-FRET assay). The class given is biochemical. As to conditions: 10 μM ATP, 60 min at 22° C., read-out: Akt1 median IC50.
From the text: Biological Assay 1.0: Akt1 Kinase Assay
Akt1 inhibitory activity of compounds of the present invention was quantified employing the Akt1 TR-FRET assay as described in the following paragraphs.
His-tagged human recombinant kinase full-length Akt1 expressed in insect cells was purchased form Invitrogen (part number PV 3599). As substrate for the kinase reaction the biotinylated peptide biotin-Ahx-[sequence] (C-terminus in amide form) was used which can be purchased e.g. from the company Biosynthan GmbH (Berlin-Buch, Germany).
For the assay 50 nl of a 100 fold concentrated solution of the test compound in DMSO was pipetted into a black low volume 384 well microtiter plate (Greiner Bio-One, Frickenhausen, Germany), 2 μl of a solution of Akt1 in assay buffer [50 mM TRIS/HCl pH 7.5, 5 mM MgCl2, 1 mM dithiothreitol, 0.02% (v/v) Triton X-100 (Sigma)] were added and the mixture was incubated for 15 min at 22° C. to allow pre-binding of the test compounds to the enzyme before the start of the kinase reaction. Then the kinase reaction was started by the addition of 3 μl of a solution of adenosine-tri-phosphate (ATP, 16.7 μM=>final conc. in the 5 μl assay volume is 10 μM) and substrate (1.67 μM=>final conc. in the 5 μl assay volume is 1 μM) in assay buffer and the resulting mixture was incubated for a reaction time of 60 min at 22° C. The concentration of Akt1 in the assay was adjusted depending of the activity of the enzyme lot and was chosen appropriate to have the assay in the linear range, typical enzyme concentrations were in the range of about 0.05 ng/μl (final conc. in the 5 μl assay volume). The reaction was stopped by the addition of 5 μl of a solution of HTRF detection reagents (200 nM streptavidine-XL665 [Cisbio] and 1.5 nM anti-phosho-Serine antibody [Millipore, cat. #35-001] and 0.75 nM LANCE Eu-W 1024 labeled anti-mouse IgG antibody [Perkin Elmer]) in an aqueous EDTA-solution (100 mM EDTA, 0.1% (w/v) bovine serum albumin in 50 mM HEPES/NaOH pH 7.5). The resulting mixture was incubated 1 h at 22° C. to allow the binding of the biotinylated phosphorylated peptide to the streptavidine-XL665 and the antibodies. Subsequently the amount of phosphorylated substrate was evaluated by measurement of the resonance energy transfer from the anti-mouse-IgG-Eu-Chelate to the streptavidine-XL665. Therefore, the fluorescence emissions at 620 nm and 665 nm after excitation at 350 nm was measured in a HTRF reader, e.g. a Rubystar (BMG Labtechnologies, Offenburg, Germany) or a Viewlux (Perkin-Elmer). The ratio of the emissions at 665 nm and at 622 nm was taken as the measure for the amount of phosphorylated substrate.
In experiment [4] the test system is MCF-7 breast tumour cell line. The experiment is described as follows: Tumor cell proliferation assay (CellTiter-Glo), MCF-7. The class given is cell-based. As to conditions: Homo sapiens, MCF7, 72 h drug exposure, read-out: MCF-7 median IC50.
A further experiment concerns p-4E-BP1 at T70. The experiment is described as follows: Cellular p-4E-BP1-T70 assay in KPL-4 cells. The class given is cell-based. To be noted: Homo sapiens, KPL4; KPL-4 breast tumour cell line, compound treatment 2 hours; read-out: P4EBP1-T70 median IC50.

His-tagged human recombinant kinase full-length Akt1, sequence (P31749 whole entry): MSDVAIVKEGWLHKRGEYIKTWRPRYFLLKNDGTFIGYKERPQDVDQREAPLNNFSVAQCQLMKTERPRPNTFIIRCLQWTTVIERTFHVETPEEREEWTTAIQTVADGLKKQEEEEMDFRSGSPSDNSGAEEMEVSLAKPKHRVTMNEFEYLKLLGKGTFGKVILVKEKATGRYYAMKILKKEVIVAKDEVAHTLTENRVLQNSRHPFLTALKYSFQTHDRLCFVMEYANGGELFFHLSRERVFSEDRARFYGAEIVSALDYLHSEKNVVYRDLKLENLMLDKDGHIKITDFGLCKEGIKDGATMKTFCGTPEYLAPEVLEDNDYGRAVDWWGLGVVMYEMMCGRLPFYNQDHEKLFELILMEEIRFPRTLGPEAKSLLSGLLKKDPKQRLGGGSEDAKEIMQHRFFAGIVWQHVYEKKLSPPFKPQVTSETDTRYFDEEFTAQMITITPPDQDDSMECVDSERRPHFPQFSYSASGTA
His-tagged human recombinant kinase full-length Akt2, sequence (P31751 whole entry): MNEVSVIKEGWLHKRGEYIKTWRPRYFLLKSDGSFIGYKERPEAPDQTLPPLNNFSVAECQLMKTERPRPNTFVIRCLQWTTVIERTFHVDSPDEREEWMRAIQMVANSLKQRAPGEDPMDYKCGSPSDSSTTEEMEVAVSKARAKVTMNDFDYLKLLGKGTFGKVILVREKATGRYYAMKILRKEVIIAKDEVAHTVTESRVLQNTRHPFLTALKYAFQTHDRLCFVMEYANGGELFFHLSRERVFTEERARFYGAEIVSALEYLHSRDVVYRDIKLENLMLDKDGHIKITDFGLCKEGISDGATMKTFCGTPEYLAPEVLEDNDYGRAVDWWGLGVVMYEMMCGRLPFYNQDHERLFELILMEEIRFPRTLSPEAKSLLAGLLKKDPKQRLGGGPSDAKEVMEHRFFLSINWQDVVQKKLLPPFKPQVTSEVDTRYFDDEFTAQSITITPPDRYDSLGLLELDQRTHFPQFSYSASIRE

What is called IC50 is the concentration needed to halve the response being measured. On to `CC(=O)Nc1ccc2nc(-c3ccc(C4(N)CCC4)cc3)c(-c3ccccc3)n2n1` [Example 37, N-{2-[4-(1-Aminocyclobutyl)phenyl]-3-phenylimidazo[1,2-b]pyridazin-6-yl}acetamide], for which the IC50 in the experiment with phospho-AKT at S473 is 0.081 µM; in experiment [1], 0.51 µM; in experiment [2] it was 3.2 µM; in experiment [3], 0.58 µM; in experiment [4], 2 µM; with p-4E-BP1 at T70, 2.5 µM.

For the compound `CC(=O)Nc1ccnn2c(-c3ccccc3)c(-c3ccc(C4(N)CCC4)cc3)nc12` [Example 49, N-{2-[4-(1-Aminocyclobutyl)phenyl]-3-phenylimidazo[1,2-b]pyridazin-8-yl}acetamide], the IC50 in the experiment on phospho-AKT at S473 came out at 0.008 µM; in experiment [1], 0.12 µM; in experiment [2] it was 0.14 µM; in experiment [3] it was 0.068 µM; in experiment [4], 0.61 µM; in the experiment with p-4E-BP1 at T70, 0.041 µM.

On to `NC1(c2ccc(-c3nc4ccc(Br)nn4c3-c3ccccc3)cc2)CCC1` [Example 41, 1-[4-(6-Bromo-3-phenylimidazo[1,2-b]pyridazin-2-yl)phenyl]cyclobutanamine], for which the IC50 with phospho-AKT at S473 was over 10 µM; in experiment [1], 0.066 µM; in experiment [2], over 10 µM; in experiment [3], 0.033 µM; in experiment [4] it was over 10 µM; with p-4E-BP1 at T70, over 10 µM.

Turning to `COc1ccnn2c(-c3ccccc3)c(-c3ccc(C4(N)CCC4)cc3)nc12` [Example 11, 1-[4-(8-Methoxy-3-phenylimidazo[1,2-b]pyridazin-2-yl)phenyl]cyclobutanamine], the IC50 with phospho-AKT at S473 was determined as 0.014 µM; in experiment [1] it was 0.11 µM; in experiment [2], 0.63 µM; in experiment [3], 0.13 µM; in experiment [4], 0.47 µM; in the experiment on p-4E-BP1 at T70, 0.16 µM.

As for `COc1cc(C(N)=O)nn2c(-c3ccccc3)c(-c3ccc(C4(N)CCC4)cc3)nc12` [Example 10, 2-[4-(1-Aminocyclobutyl)phenyl]-8-methoxy-3-phenylimidazo[1,2-b]-pyridazine-6-carboxamide], the IC50 in the experiment with phospho-AKT at S473 is 0.0024 µM; in experiment [1], 0.0041 µM; in experiment [2], 0.049 µM; in experiment [3] it was 0.0026 µM; in experiment [4], 0.039 µM; in the experiment with p-4E-BP1 at T70, 0.028 µM.

In the case of `CCc1cc(CC)c2nc(-c3ccc(C4(N)CCC4)cc3)c(-c3ccccc3)n2n1` [Example 16, 1-[4-(6,8-Diethyl-3-phenylimidazo[1,2-b]pyridazin-2-yl)phenyl]cyclobutanamine], the IC50 in the experiment on phospho-AKT at S473 was 0.52 µM; in experiment [1], 0.16 µM; in experiment [2], 2 µM; in experiment [3], 0.16 µM; in experiment [4], 1.8 µM; in the experiment on p-4E-BP1 at T70 it was 2.5 µM.

Consider `CCOC(=O)c1ccc2nc(-c3ccc(C4(N)CCC4)cc3)c(-c3ccccc3)n2n1` [Example 4, Ethyl 2-[4-(1-aminocyclobutyl)phenyl]-3-phenylimidazo[1,2-b]pyridazine-6-carboxylate], for which the IC50 stood at 0.61 µM with phospho-AKT at S473; 0.19 µM in experiment [1]; 2.4 µM in experiment [2]; 0.085 µM in experiment [3]; 1.8 µM in experiment [4]; 2.4 µM with p-4E-BP1 at T70.

With `COc1cc(Br)nn2c(-c3ccccc3)c(-c3ccc(C4(N)CCC4)cc3)nc12` [Example 7, 1-[4-(6-Bromo-8-methyloxy-3-phenylimidazo[1,2-b]pyridazin-2-yl)phenyl]-cyclobutanamine], the IC50 worked out at 0.027 µM in the experiment on phospho-AKT at S473; 0.0097 µM in experiment [1]; 0.25 µM in experiment [2]; 0.0069 µM in experiment [3]; 0.41 µM in experiment [4]; 1.3 µM in the experiment on p-4E-BP1 at T70.

On to `NC1(c2ccc(-c3nc4c(-c5ccc(F)cc5)cc(-c5ccc(F)cc5)nn4c3-c3ccccc3)cc2)CCC1` [Example 42, 1-{4-[6,8-Bis(4-fluorophenyl)-3-phenylimidazo[1,2-b]pyridazin-2-yl]phenyl}cyclobutanamine], for which the IC50 with phospho-AKT at S473 amounted to 0.12 µM; in experiment [1] it was 20 µM; in experiment [2] it was 2.8 µM; in experiment [3], 20 µM; in experiment [4] it was 4.2 µM; in the experiment on p-4E-BP1 at T70, 2.6 µM.

`COC(=O)c1ccc2nc(-c3ccc(C4(N)CCC4)cc3)c(-c3ccccc3)n2n1` [Example 39, Methyl 2-[4-(1-aminocyclobutyl)phenyl]-3-phenylimidazo[1,2-b]pyridazine-6-carboxylate]: the IC50 was 0.28 µM in the experiment on phospho-AKT at S473; 0.16 µM in experiment [1]; over 10 µM in experiment [2]; 0.038 µM in experiment [3]; 6.1 µM in experiment [4]; 7.5 µM in the experiment on p-4E-BP1 at T70.

In the case of `NC1(c2ccc(-c3nc4cccnn4c3-c3ccccc3)cc2)CCC1` [Example 25, 1-[4-(3-Phenylimidazo[1,2-b]pyridazin-2-yl)phenyl]cyclobutanamine], the IC50 turned out to be 0.09 µM in the experiment with phospho-AKT at S473; 0.16 µM in experiment [1]; 2 µM in experiment [2]; 0.19 µM in experiment [3]; 1.9 µM in experiment [4]; 0.55 µM with p-4E-BP1 at T70.

With `CCOc1cc(C(N)=O)nn2c(-c3ccccc3)c(-c3ccc(C4(N)CCC4)cc3)nc12` [Example 61, 2-[4-(1-Aminocyclobutyl)phenyl]-8-ethoxy-3-phenylimidazo[1,2-b]pyridazine-6-carboxamide], the half-maximal inhibitory concentration (IC50) with phospho-AKT at S473 is 0.0005 µM; in experiment [1], 0.0037 µM; in experiment [2] it was 0.033 µM; in experiment [3], 0.0041 µM; in experiment [4], 0.056 µM; in the experiment with p-4E-BP1 at T70 it was 0.002 µM.

Consider `COc1cc(-c2cc[nH]n2)c2nc(-c3ccc(C4(N)CCC4)cc3)c(-c3ccccc3)n2n1` [Example 73, 1-{4-[6-Methoxy-3-phenyl-8-(1H-pyrazol-3-yl)imidazo[1,2-b]pyridazin-2-yl]-phenyl}cyclobutanamine], for which the concentration for half-maximal inhibition (IC50) was found to be 0.23 µM with phospho-AKT at S473; 0.043 µM in experiment [1]; 1.8 µM in experiment [2]; 0.0043 µM in experiment [3]; 2 µM in experiment [4]; 1.7 µM with p-4E-BP1 at T70.

Take `CSc1nn2c(-c3ccccc3)c(-c3ccc(C4(N)CCC4)cc3)nc2c(C)c1C` [Example 54, 1-{4-[7,8-Dimethyl-6-(methylsulfanyl)-3-phenylimidazo[1,2-b]pyridazin-2-yl]-phenyl}cyclobutanamine]: the IC50 is 0.69 µM in the experiment on phospho-AKT at S473; 0.035 µM in experiment [1]; 0.74 µM in experiment [2]; 0.012 µM in experiment [3]; 1.8 µM in experiment [4]; 1.6 µM with p-4E-BP1 at T70.

As for `C=Cc1cc(OC)c2nc(-c3ccc(C4(N)CCC4)cc3)c(-c3ccccc3)n2n1` [Example 18, 1-[4-(8-Methoxy-3-phenyl-6-vinylimidazo[1,2-b]pyridazin-2-yl)phenyl]-cyclobutanamine], the IC50 was 0.18 µM with phospho-AKT at S473; 0.053 µM in experiment [1]; 1.6 µM in experiment [2]; 0.086 µM in experiment [3]; 1.1 µM in experiment [4]; 0.71 µM in the experiment on p-4E-BP1 at T70.

For the compound `CCc1ccc2nc(-c3ccc(C4(N)CCC4)cc3)c(-c3ccccc3)n2n1` [Example 2, 1-[4-(6-Ethyl-3-phenylimidazo[1,2-b]pyridazin-2-yl)phenyl]cyclobutanamine], the IC50 in the experiment with phospho-AKT at S473 was 0.31 µM; in experiment [1], 0.097 µM; in experiment [2], 1.7 µM; in experiment [3], 0.065 µM; in experiment [4] it was 1.7 µM; with p-4E-BP1 at T70, 2.1 µM.

As to `COC(=O)c1cc(-c2ncc[nH]2)c2nc(-c3ccc(C4(N)CCC4)cc3)c(-c3ccccc3)n2n1` [Example 58, Methyl 2-[4-(1-aminocyclobutyl)phenyl]-8-(1H-imidazol-2-yl)-3-phenylimidazo[1,2-b]pyridazine-6-carboxylate], the IC50 in the experiment on phospho-AKT at S473 is 1 µM; in experiment [1] it was 0.28 µM; in experiment [2] it was over 10 µM; in experiment [3] it was 0.11 µM; in experiment [4] it was over 10 µM; with p-4E-BP1 at T70, 10 µM.

Consider `COC(=O)CCc1ccnn2c(-c3ccccc3)c(-c3ccc(C4(N)CCC4)cc3)nc12` [Example 72, Methyl 3-{2-[4-(1-aminocyclobutyl)phenyl]-3-phenylimidazo[1,2-b]pyridazin-8-yl}propanoate], for which the IC50 with phospho-AKT at S473 was 1 µM; in experiment [1], 0.58 µM; in experiment [2], 2.2 µM; in experiment [3], 0.31 µM; in experiment [4] it was 3 µM; in the experiment on p-4E-BP1 at T70, 0.59 µM.

As to `Cn1nccc1-c1cc(Cl)nn2c(-c3ccccc3)c(-c3ccc(C4(N)CCC4)cc3)nc12` [Example 23, 1-{4-[6-Chloro-8-(1-methyl-1H-pyrazol-5-yl)-3-phenylimidazo[1,2-b]pyridazin-2-yl]phenyl} cyclobutanamine], the IC50 with phospho-AKT at S473 was 1.4 µM; in experiment [1], 0.19 µM; in experiment [2], 2.2 µM; in experiment [3], 1.2 µM; in experiment [4] it was 2.1 µM; in the experiment on p-4E-BP1 at T70, 2.9 µM.

Consider `CCOc1cc(C(=O)OC)nn2c(-c3ccccc3)c(-c3ccc(C4(N)CCC4)cc3)nc12` [Example 57, Methyl 2-[4-(1-aminocyclobutyl)phenyl]-8-ethoxy-3-phenylimidazo[1,2-b]pyridazine-6-carboxylate], for which the IC50 in the experiment on phospho-AKT at S473 turned out to be 0.25 µM; in experiment [1] it was 0.029 µM; in experiment [2], 9.4 µM; in experiment [3], 0.025 µM; in experiment [4] it was 2.1 µM; with p-4E-BP1 at T70, 1.8 µM.
